Measurements as given in US8283308B2, “Copolymer-stabilized emulsions” (The Regents of the University of California, priority 2007, dated 2012).

Assays:
Type in all cases: physicochemical
[1] = Emulsification activity, emulsion type and stability
Description: The freeze-dried K40rL10 copolypeptide was first dissolved in de-ionized water at the desired concentration. The range of block copolypeptide concentrations, C, varied from 1.0×10^−4 mM to 1.7 mM. Silicone oil (10 cSt, Gelest PDMS) was added to give the desired volume fraction φ of oil to the continuous phase (0.01≦φ≦0.8). A premix emulsion was prepared by applying shear using either a handheld homogenizer (IKA Ultra-Turrax T8 with the S8N-8G dispersing element) or a handheld ultrasonic homogenizer (Cole-Palmer 4710 Series Model ASI at an output of 35-40%). This premix emulsion was then passed through a M-110S Microfluidizer® Processor with a 75 μm stainless steel/ceramic interaction chamber and an input air pressure p=130 psi. The emulsion was collected at the product outlet of the microfluidic homogenizer, and then passed through the microfluidic homogenizer five more passes (N=6 total), which decreased the average droplet radius and increased the monodispersity of the sample. We have formed double emulsions of copolypeptide, water, and various oils other than 10 cSt and 100 cSt silicone oil, including soybean oil and methyl oleate.
Diblock copolypeptides were screened for emulsification activity by adding PDMS silicone oil to aqueous Kx(rac-L)y solutions (Table 1, FIGS. 2A-2B, 11A). […]

[2] = Oil/water interfacial tension, Du Nouy ring method; conditions: 10 cSt PDMS / 0.1 mM block copolypeptide solution, pull rate 0.01 mm/s, 25° C.
[3] = Emulsion droplet sizes from cryo-TEM (CTEM) images
Description: For certain applications, further size separation may be desired. For these applications, we could also use centrifugation to fractionate the emulsion and isolate emulsions of a desired size range. To accomplish such separation, a 1.5 mM K40rL20 emulsion (φ=0.2) that had been passed through the microfluidic homogenizer for six passes (N=6) was placed in a desktop centrifuge set to a low speed of 3,500 rpm (revolutions per minute) for 4 hours. Due to the differences in mass densities of the droplet structures with respect to the continuous liquid phase, the larger droplets rose to the top as a plug more rapidly and could be separated out easily from the extremely dilute suspension of smaller droplets below (i.e. the remnants). We were able to separate out larger droplets that had diameters greater than 300 nm. The remnant suspension had droplet diameters less than 300 nm, therefore, a higher speed centrifuge was needed to further fractionate the sizes of the droplets. The remnant suspension was placed in an ultracentrifuge and centrifuged […] at 20,000 rpm.
A 1.5 mM K40rL20 emulsion (prepared as above) was centrifuged in a 15 mL plastic centrifuge tube for 24 h at 3,500 rpm using an IEC HN-S tabletop centrifuge. A 0.5 mm plug formed, and was separated from the remnants. A plug was formed at the top of the tube (droplet sizes >300 nm, by cryo-TEM), due the different densities of silicone oil and water (0.973 g/mL for 10 cSt PDMS silicone oil vs. 1.0 g/mL for water). The plug was isolated from the rest of the sample, designated as primary remnants, and these primary remnants were further fractionated at 20,000 rpm for 4 hrs using a Beckman L8-55 ultracentrifuge. A plug formed on the top of the suspension (droplet sizes ranging from 30 nm to 200 nm, by cryo-TEM) along with droplets remaining in suspension as secondary remnants (droplet sizes ranging from 10 nm to 30 nm, by cryo-TEM).
Each emulsion sample was diluted tenfold with DI water prior to imaging. An aliquot of each sample (5 μL) was then placed on a carbon grid. The grid was loaded into a Vitrobot (FEI) automated vitrification device for automated sample blotting and vitrification in liquid ethane. The grid was stored under liquid nitrogen and then placed, using a cold stage, in a Phillips Tecnai F20 electron microscope with an accelerating voltage of 120 kV. Images were obtained on a Teitz SCX slow-scan CCD detector coupled to the Leginon software package.
PDMS silicone oil (10 cSt) was added to give the desired volume fraction A of oil to the continuous phase (0.05<φ<0.50). A microscale emulsion (i.e. “premix” emulsion) was prepared by either mixing for 1 minute using a handheld homogenizer (IKA Ultra-Turrax T8 with the S8N-8G dispersing element) or by mixing for 10 seconds using a handheld ultrasonic tip homogenizer (Cole-Parmer 4710 Series Model ASI at an output of 35-40%). This emulsion was then passed through a M-110S Microfluidizer® Processor with a 75 μm stainless steel/ceramic interaction chamber and an input air pressure p=130 psi. The emulsion was collected at the product outlet, and then passed through the microfluidic homogenizer repeatedly for a total of six passes (N=6), which decreased the average droplet radius (e.g. of the single droplets in a simple emulsion and of the outer and inner droplets in a double emulsion) and increased the monodispersity of the droplets in the emulsions. A similar protocol was used for emulsions generated using other block copolypeptide surfactants (Table 1. FIGS. 7A-7C). The ratio given by the inner droplet radius divided by the outer droplet radius (labeled as “I/O ratio”) was relatively uniform for different hydrophobic chain lengths at approximately 0.5 (Table 1, FIG. 7D). Other amphiphilic block copolypeptides, where either the lysine or leucine domains were substituted with different hydrophilic or hydrophobic residues, respectively, were also found to form double emulsions (FIGS. 8A-8D).

[4] = Emulsion droplet size by dynamic light scattering (DLS); conditions: N=6, p=130 psi, φ=0.20
Description: The diameters of emulsion droplets were estimated by dynamic light scattering (DLS) with a Photocor-FC board and software. The samples were diluted to obtain an intensity reading of between 1×10^5 and 6×10^5. Each measurement was performed at a scattering angle of 90° for 500 seconds, with linear channel spacing and an adjustable baseline. The fitting procedure used was cumulant analysis with an adjustable baseline to fit the data and calculate average droplet radii.

[5] = Critical aggregation concentration by pyrene fluorescence; conditions: pyrene fluorescence at 20° C.
[6] = sample fractionated from larger droplets by centrifugation followed by ultracentrifugation

Poly(L-lysine-HBr)40-b-poly(rac-leucine)20 [K40(rac-L)20]
type of emulsion formed ([1]; PDMS silicone oil, microscopy / cryo-TEM): formation of double emulsions
emulsification of other immiscible liquids ([1]; dodecane, soybean oil, methyl oleate, 1 mM in water): gave emulsions
Interfacial Tension (dyne/cm) [2]: 25.3 dyne/cm
droplet diameters of remnant suspension after low speed centrifugation ([3]; 1.5 mM emulsion, 3,500 rpm): less than 300 nm
droplet diameters ([3]; after passage six times through microfluidic homogenizer): ten to a few hundred
Inner/Outer Diameter Ratio ([3]; average of at least 50 droplets from CTEM, N=6, p=130 psi, C=1.0 mM, φ=0.20): 0.57
Droplet Diameter (nm) ([3]; outer droplets, average of at least 50 droplets from CTEM, microfluidic homogenizer N=6, p=130 psi, C=1.0 mM, φ=0.20): 120 nm
Droplet Diameter (nm) [3, 6]: 60 nm
Inner/Outer Diameter Ratio [3, 6]: 0.45
smallest double emulsion droplets, diameter ([3]; ultrasonic homogenization): ca. 400 nm
average droplet radius ([4]; copolypeptide concentration 0.1 mM): about 400 nm
average droplet radius ([4]; copolypeptide concentration 1.5 mM): about 160 nm
CAC [5]: 970 nM
